Source: PMC12575728, “Galactose-modified small molecule modulator targets RORα to enhance circadian rhythm and alleviate periodontitis-associated alveolar bone loss” (Bone Research, 2025)
≈ marks a conversion by molar mass, not a printed value.

What was measured:
Kinetic solubility test = type: physicochemical; settings: water, 25 °C, kinetic from dmso stock
From the text: Solubility(μmol/L)=Areafiltered×DFfiltered/Areastd×DFstd×[std]×DFstd

RORα = target: T1, RORα (Homo sapiens, UniProt P35398); assay: Luciferase reporter assay (G6Pase or FGF21 promoter) in HEK293T cells cotransfected with RORα; type: cell-based; settings: Fig. S34
T1 construct: HEK293T cells co-transfected with a full-length RORα gene and a luciferase reporter gene; expressed in transfected cells; host or cells: HEK293T
T1 sequence (P35398 1-523): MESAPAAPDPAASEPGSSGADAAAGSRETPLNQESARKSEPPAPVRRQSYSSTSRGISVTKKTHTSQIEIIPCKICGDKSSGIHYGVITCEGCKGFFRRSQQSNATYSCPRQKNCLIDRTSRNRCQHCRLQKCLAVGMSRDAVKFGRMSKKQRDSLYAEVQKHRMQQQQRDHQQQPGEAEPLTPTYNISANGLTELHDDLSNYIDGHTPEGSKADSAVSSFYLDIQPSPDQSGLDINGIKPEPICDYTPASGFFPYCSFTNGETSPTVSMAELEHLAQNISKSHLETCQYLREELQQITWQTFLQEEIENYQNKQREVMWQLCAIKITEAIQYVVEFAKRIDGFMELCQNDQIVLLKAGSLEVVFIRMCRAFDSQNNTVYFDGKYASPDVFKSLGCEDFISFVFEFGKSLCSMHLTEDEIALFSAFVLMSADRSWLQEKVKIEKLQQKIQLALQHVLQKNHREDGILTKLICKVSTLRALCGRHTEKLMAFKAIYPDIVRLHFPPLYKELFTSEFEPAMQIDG
Procedure: HEK293T cells were transfected with Lipofectamine 8000 (ThermoFisher) strictly following the manufacturer’s instructions. Cotransfected HEK293T cells with RORα or RORγ plasmid and a reporter consisting of the G6Pase or FGF21 promoters upstream of a luciferase reporter gene. 500 ng plasmid DNA was transfected into each well of 24 well-plate 24 h after the transfection, DMSO or Gala-SR and SR1078 (5 µmol/L) was added and incubated for 24 h. The Lumicycle instrument detects luminescence and records the numerical value.

[1] = tested on: Per2-dLuc and Bmal1-dLuc U2OS cells; assay: Real-time bioluminescence monitoring of Per2-dLuc and Bmal1-dLuc U2OS cells; type: cell-based, human; settings: U2OS reporter cells, 5 μmol/L, vs DMSO
Procedure: Two clonal circadian reporter cell lines, Bmal1-dLuc and Per2-dLuc, were established and used in this study.[36] These two cell lines display robust cellular rhythmicity with near anti-phasic oscillation of bioluminescence expression. The lentivirus preparation, transduction of U2OS cells and selection of the knockout candidates with puromycin (at […] concentration) were performed using a previously published protoco.[37] LumiCycle (Actimetrics, Inc., Evanston, IL) detect for U2OS cells stably expressing Bmal1-dLuc and Per2-dLuc cells were seeded on an opaque 24-well plate. When the cells are full, which were treated with dexamethasone (DEX) (100 nmol/L final) for 2 h for resetting, 2 h later, the media of cells were replaced with bioluminescence recording media having DMEM culture medium (Gibco 21063029, 500 mL), 70 mL 12% FBS. Luciferin (0.1 mmol/L final) was added fresh to the bioluminescence media. Molecules at determined concentrations were supplied to the recording media (final DMSO concentration is 0.1%).

Row | solubility kinetic at 2 h (Kinetic solubility test) [µM] | RORα transcriptional activity (RORα) | SMILES | circadian rhythm amplitudes [1] | period or phase of the circadian rhythm [1]
1 | 286 (≈ 225 µg/mL) |  | O=C(Nc1ccc(C(OCO[C@@H]2O[C@H](CO)[C@@H](O[C@H]3O[C@H](CO)[C@@H](O)[C@H](O)[C@H]3O)[C@H](O)[C@H]2O)(C(F)(F)F)C(F)(F)F)cc1)c1ccc(C(F)(F)F)cc1 [Malt-SR] |  | 
2 |  | successful inhibition | Cc1ccc(C(=O)Nc2ccc(C(O)(C(F)(F)F)C(F)(F)F)cc2)cc1 [compound 9, reference compound] | downregulate the amplitudes | without disrupting the fundamental period or phase
3 | 198 (≈ 124 µg/mL) |  | O=C(Nc1ccc(C(OCO[C@H]2O[C@H](CO)[C@@H](O)[C@H](O)[C@@H]2O)(C(F)(F)F)C(F)(F)F)cc1)c1ccc(C(F)(F)F)cc1 [Mann-SR] |  | 
